Several values for one entry are separate records, joined by “and”; a condition that tells them apart may be missing. Equal entries are not always repeated. Entries after “also recorded” stand apart in the source; their conditions may differ. Structures can show the parent of a compound that is named as a salt. Where two headings read alike, the source gives them in different places. Non-standard residues stand in square brackets, D forms with d. Residues, ends and D or L forms follow the SMILES beside them.
Assays:
[1] = mouse 55° C. warm water tail withdrawal assay, antinociception; type: in vivo; conditions: for ED50 (95% CI) i.c.v. / ED50 (95% CI) p.o.: antinociception; for Receptors involved: opioid receptors contributing to antinociception
Protocol: (§1) The peptides of Table 1 shown below in Tables 3 and 4 were evaluated in radioligand binding assays for mu, kappa and delta opioid receptor affinities in vitro, and in the mouse 55° C. warm water tail withdrawal assay in vivo for antinociception and opioid antagonist activity.

[2] = nerve constriction assay for neuropathic pain; type: in vivo, rodent; conditions: 10 mg/kg p.o.; compared to 50 mg/kg i.p. gabapentin and 2801
Protocol: In the nerve constriction assay, a nerve of a subject rodent is chronically constricted or cuffed and then the animal is assessed for response to pain stimuli such a paw withdrawal. […] Gabapentin is an accepted treatment for neuropathic pain.

[3] = rotorod test for sedation and motor coordination; type: in vivo; parameters: key: ✓ indicates tested (if no other comment then no significant effect)
[4] = acute tolerance model; conditions: in vivo
[5] = other pain models (formalin, acetic acid stretching, nerve constriction; FIGS. 1-3B); conditions: in vivo
Source text: These models are based on the formalin assay, the acetic acid stretching assay, and the nerve constriction assay. The formalin and acetic acid stretching assays are indicative of activity against inflammatory pain (i.e., nociceptive pain) and the nerve constriction assay is indicative of activity against neuropathic pain.

[6] = target: mu opioid receptor (MOR) (Homo sapiens, UniProt P35372); assay: radioligand binding assay, mu opioid receptor affinity
Protocol: as §1

[7] = respiratory depression; type: in vivo; parameters: key: ✓ indicates tested (if no other comment then no significant effect)
[8] = system: opioid receptors (KOR, MOR, DOR); assay: mouse 55° C. warm water tail withdrawal assay, opioid antagonist activity; type: in vivo; conditions: for Antagonism (opioid receptor antagonised in vivo): dose not given
Protocol: as §1

[9] = target: kappa opioid receptor (KOR) (Homo sapiens, UniProt P41145); assay: radioligand binding assay, kappa opioid receptor affinity; conditions: for Selectivity KOR/MOR/DOR: ratio of Ki values
Protocol: as §1

[10] = locomotion (CLAMS); type: in vivo; parameters: key: ✓ indicates tested (if no other comment then no significant effect)
[11] = target: delta opioid receptor (DOR) (Homo sapiens, UniProt P41143); assay: radioligand binding assay, delta opioid receptor affinity; conditions: for Ki: n in parentheses, read-out: Ki (nM ± SEM) DOR
Protocol: as §1

[12] = conditioned place response assay; conditions: oral administration of the peptides
[13] = n in parentheses, read-out: Ki (nM ± SEM) MOR
[14] = n in parentheses, read-out: Ki (nM ± SEM) KOR

delta opioid receptor (DOR), sequence (P41143 whole entry): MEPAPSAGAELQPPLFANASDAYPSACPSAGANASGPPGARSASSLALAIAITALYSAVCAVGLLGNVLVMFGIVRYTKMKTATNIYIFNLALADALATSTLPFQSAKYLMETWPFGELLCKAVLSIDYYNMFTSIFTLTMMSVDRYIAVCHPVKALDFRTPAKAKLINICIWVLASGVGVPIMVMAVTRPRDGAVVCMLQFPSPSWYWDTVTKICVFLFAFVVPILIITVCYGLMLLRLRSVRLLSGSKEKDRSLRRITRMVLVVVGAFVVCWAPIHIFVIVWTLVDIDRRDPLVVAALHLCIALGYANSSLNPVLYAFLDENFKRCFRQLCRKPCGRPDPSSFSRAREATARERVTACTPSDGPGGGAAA
kappa opioid receptor (KOR), sequence (P41145 whole entry): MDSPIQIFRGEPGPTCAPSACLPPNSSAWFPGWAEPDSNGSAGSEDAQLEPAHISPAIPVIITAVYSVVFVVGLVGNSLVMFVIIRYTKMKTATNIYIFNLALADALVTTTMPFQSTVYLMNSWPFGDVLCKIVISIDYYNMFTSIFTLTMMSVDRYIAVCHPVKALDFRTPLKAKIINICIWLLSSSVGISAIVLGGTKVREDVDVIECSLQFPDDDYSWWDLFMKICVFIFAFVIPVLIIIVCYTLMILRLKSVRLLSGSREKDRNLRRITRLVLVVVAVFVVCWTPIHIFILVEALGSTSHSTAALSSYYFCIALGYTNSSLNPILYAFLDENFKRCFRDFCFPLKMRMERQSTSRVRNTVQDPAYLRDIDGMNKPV
mu opioid receptor (MOR), sequence (P35372 whole entry): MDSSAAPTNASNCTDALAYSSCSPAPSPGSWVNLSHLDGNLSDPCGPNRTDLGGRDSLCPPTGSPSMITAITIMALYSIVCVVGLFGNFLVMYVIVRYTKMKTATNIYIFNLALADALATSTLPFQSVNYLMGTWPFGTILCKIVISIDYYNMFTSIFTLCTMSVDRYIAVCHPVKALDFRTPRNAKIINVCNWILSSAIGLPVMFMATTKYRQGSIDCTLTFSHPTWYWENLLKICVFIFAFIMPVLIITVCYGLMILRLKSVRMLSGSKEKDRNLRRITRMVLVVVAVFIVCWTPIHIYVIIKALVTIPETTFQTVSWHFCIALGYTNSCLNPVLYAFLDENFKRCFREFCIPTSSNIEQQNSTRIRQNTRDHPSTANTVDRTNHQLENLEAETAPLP

Row | SMILES | ED50 (95% CI) i.c.v. ([1]; i.c.v.) | ED50 (95% CI) p.o. ([1]; p.o.) | Receptors involved [1] | Rotorod (10 mg/kg, p.o.) [3] | Acute Tolerance ED50 shift [4] | Ki [6, 13] | Respiratory depression 10 mg/kg p.o. [7] | Antagonism (dose, nmol) ([8]; 100 nmol) | Antagonism (opioid receptor antagonised in vivo) [8] | Ki [9, 14] | Locomotion (CLAMS, 10 mg/kg, p.o.) [10] | Ki [11] | also measured
1 | O=C1N[C@@H](Cc2ccccc2)C(=O)N2CCC[C@H]2C(=O)N[C@@H](Cc2ccccc2)C(=O)N[C@H]1Cc1c[nH]c2ccccc12 [JVA 3612, cyclo[Phe-Pro- Phe-Trp]] (cyclo(FPFW)) | 3.52 (2.01-6.42) nmol | 4.28 (3.56-5.27) mg/kg | KOR, MOR and DOR |  |  |  |  |  |  |  |  |  | 
2 | O=C1N[C@H](Cc2ccccc2)C(=O)N[C@H](Cc2c[nH]c3ccccc23)C(=O)N[C@@H](Cc2ccccc2)C(=O)N2CCC[C@H]12 [JVA 3608, cyclo[Phe-D-Pro-D-Phe-D-Trp]] (cyclo(F[dP][dF][dW])) | 0.56 nmol | 4.72 mg/kg | KOR, MOR, and DOR | ✓ | 9.87 fold | 5800 ± 1450 nM | evidence of respiratory depression; also recorded: Resp | DOR (100) | exhibit DOR antagonist activity | 353 ± 19 nM | Sig. hypo- | > 10000 nM | relief of neuropathic pain [2]: significant relief of neuropathic pain; analgesic activity in other pain models [5]: significant analgesic properties; analgesic activity in other pain models ([5]; listed as 3708): show activity against pain; Ki ([6]; read-out: Ki MOR): > 1000 nM; Ki ([9]; read-out: Ki KOR): < 1000 nM; affinity for DOR [11]: negligible affinity
3 | CN1CC[C@]23c4c5ccc(O)c4O[C@H]2[C@@H](O)C=C[C@H]3[C@H]1C5 [Morphine sulfate, morphine, reference compound] |  |  |  |  |  |  |  |  |  |  |  |  | conditioned place preference (drug seeking behavior) or conditioned place aversion [12]: significant conditioned place preference
4 | O=C1N[C@H](Cc2ccccc2)C(=O)N2CCC[C@H]2C(=O)N[C@H](Cc2ccccc2)C(=O)N[C@H]1Cc1c[nH]c2ccccc12 [JVA 3638, cyclo[D-Phe- Pro-D-Phe-Trp]] (cyclo(P[dF]W[dF])) | 8.93 (1.96-19.5) nmol |  |  |  |  |  |  |  |  |  |  |  | 
5 | O=C1N[C@H](Cc2ccccc2)C(=O)N2CCC[C@@H]2C(=O)N[C@@H](Cc2ccccc2)C(=O)N[C@H]1Cc1c[nH]c2ccccc12 [JVA 3605, cyclo[D-Phe-D- Pro-Phe-Trp]] (cyclo([dF][dP]FW)) | 0.75 nmol | 7.62 mg/kg | KOR, MOR, and DOR | effects similar to the KOR selective agonist U50,488, suggesting sedation; also recorded: ✓ (sig |  | > 10000 nM | evidence of respiratory depression; also recorded: Sig. resp | DOR (100) | exhibits KOR antagonist activity; also recorded: exhibit DOR antagonist activity | 5120 ± 690 nM | ✓ | > 10000 nM | relief of neuropathic pain [2]: significant relief of neuropathic pain; analgesic activity in other pain models [5]: significant analgesic properties; also recorded: show activity against pain; Antagonism (dose, nmol) ([8]; 30 nmol): KOR (30),; conditioned place preference (drug seeking behavior) or conditioned place aversion [12]: no evidence of inducing drug seeking behavior; also recorded: do not show evidence of conditioned place preference (drug seeking behavior) or conditioned place aversion
6 | O=C1N[C@H](Cc2c[nH]c3ccccc23)C(=O)N[C@@H](Cc2ccccc2)C(=O)N2CCC[C@H]2C(=O)N[C@H]1Cc1ccccc1 [JVA 3639, cyclo[Phe-Pro- Phe-D-Trp]] (cyclo(FPF[dW])) | 49.7 (34.8-69.8) nmol |  |  |  |  |  |  |  |  |  |  |  | 
7 | O=C1N[C@@H](Cc2ccccc2)C(=O)N2CCC[C@@H]2C(=O)N[C@@H](Cc2ccccc2)C(=O)N[C@H]1Cc1c[nH]c2ccccc12 [JVA 2801, cyclo[Phe-D-Pro-Phe-Trp], reference compound] (cyclo(FWF[dP])) | 1.74 nmol | 3.49 mg/kg | KOR, MOR |  | 1.73 fold |  |  |  | KOR | 35.4 nM and 16.9 nM |  | 1720 ± 350 nM | Rotorod ([3]; 10 and 60 mg/kg): ✓ (10 and 60; Antagonism (opioid receptor antagonised in vivo) ([8]; listed as CJ-15,208): mixed opioid agonist/kappa opioid receptor (KOR) antagonist activity; also recorded: weak antagonist activities at kappa opioid receptors (KOR); Selectivity KOR/MOR/DOR [9]: 1/18/49 and 1/12/102
8 | O=C1N[C@H](Cc2c[nH]c3ccccc23)C(=O)N[C@@H](Cc2ccccc2)C(=O)N2CCC[C@@H]2C(=O)N[C@H]1Cc1ccccc1 [JVA 2802, cyclo[Phe-D-Pro-Phe-D-Trp], reference compound] (cyclo(F[dP]F[dW])) |  |  | KOR |  |  | 259 ± 29 nM |  |  | KOR |  |  | 4190 ± 860 nM | affinity for KOR [9]: retains KOR affinity comparable to the parent CJ-15,208; Selectivity KOR/MOR/DOR [9]: 1/37/599; Locomotion (CLAMS) ([10]; 60 mg/kg): ✓; antinociception i.c.v. at 30 nmol ([1]; i.c.v., 30 nmol): ~40% @; antinociception p.o. at 60 mg/kg ([1]; p.o., 60 mg/kg): ~25% @
9 | O=C1N[C@H](Cc2c[nH]c3ccccc23)C(=O)N[C@H](Cc2ccccc2)C(=O)N2CCC[C@@H]2C(=O)N[C@H]1Cc1ccccc1 [JVA 3609, cyclo[D-Phe-D- Pro-Phe-D-Trp]] (cyclo(F[dW][dF][dP])) | 2.39 nmol | ≥10 mg/kg | mu opioid receptors (MOR) are not involved; also recorded: DOR, KOR | ✓ (sig |  | > 10000 nM | evidence of respiratory depression; also recorded: Resp |  |  | > 10000 nM | Sig. hypo- | > 10000 nM | Antagonism (dose, nmol) ([8]; 30 nmol): None (30); antinociception response p.o. at 30 mg/kg ([1]; p.o.): (~60% at
10 | O=C1N[C@@H](Cc2ccccc2)C(=O)N2CCC[C@@H]2C(=O)N[C@H](Cc2ccccc2)C(=O)N[C@H]1Cc1c[nH]c2ccccc12 [JVA 3606, cyclo[Phe-D-Pro-D-Phe-Trp]] (cyclo(F[dP][dF]W)) | Partial agonist | > 30 mg/kg | KOR, MOR | ✓ | Substantial | 3920 ± 200 nM | ✓ | None (100) |  | 362 ± 51 nM | Sig. hypo- | > 10000 nM | Ki ([6]; read-out: Ki MOR): > 1000 nM; Ki ([9]; read-out: Ki KOR): < 1000 nM; maximum antinociception i.c.v. ([1]; i.c.v., max): (~60% max); antinociception response p.o. at 30 mg/kg ([1]; p.o.): ~45%; affinity for DOR [11]: negligible affinity

From patent publication US10259843B2, “Cyclic tetrapeptide stereoisomers” (University of Kansas, priority 2014, dated 2019)
